System: ERISU (Conyza sumatrensis, Sumatran fleabane)
Test: Greenhouse post-emergence foliar weed control trial, visual injury score 0-100 percent
Format: in vivo
Details: 400 gai/ha
From the text: Results in Examples are greenhouse trial results.
Seeds or nutlets of the desired test plant species were planted in a soil matrix prepared by mixing a loam or sandy loam soil (e.g., 28.6 percent silt, 18.8 percent clay, and 52.6 percent sand, with a pH of about 5.8 and an organic matter content of about 1.8 percent) and calcareous grit in an 80 to 20 ratio. The soil matrix was contained in plastic pots with a volume of 1 quart and a surface area of 83.6 cm2. When required to ensure good germination and healthy plants, a fungicide treatment and/or other chemical or physical treatment was applied. The plants were grown for 8-22 days in a greenhouse with an approximate 14 h photoperiod which was maintained at about 29° C. during the day and 26° C. during the night. Nutrients (Peters Excel® 15-5-155-Ca 2-Mg and iron chelate) were applied in the irrigation solution as needed and water was added on a regular basis. Supplemental lighting was provided with overhead metal halide 1000-Watt lamps as necessary. The plants were employed for testing when they reached the first through fourth true leaf stage.
Treatments comprised of the acid or esters of halauxifen-methyl (methyl 4-amino-3-chloro-6-(4-chloro-2-fluoro-3-methoxyphenyl)picolinate), each formulated as an SC (suspension concentrate), and various herbicidal components alone and in combination. A form of the compound of Formula I were applied on an acid equivalent basis.
Treatment requirements were calculated based upon the rates being tested, the concentration of active ingredient or acid equivalent in the formulation, and a 12 mL application volume at a rate of 187 L/ha.
For treatments comprised of formulated and technical compounds, weighed amounts of the technical materials were placed individually in 25 mL glass vials and dissolved in a volume of 97:3 v/v acetone/DMSO to obtain 12× stock solutions, and measured amounts of the formulated compounds were placed individually in 25 mL glass vials and diluted in a volume of 1.5% (v/v) crop oil concentrate or water to obtain 12× stock solutions. […] As required, additional water and/or 97:3 v/v acetone/DMSO was added to individual application solutions so that the final acetone and DMSO concentrations of the application solutions being compared were 8.1% and 0.25%, respectively.
All stock solutions and applications solutions were visually inspected for compound compatibility prior to application. Spray solutions were applied to the plant material with an overhead Mandel track sprayer equipped with an 8002E nozzle calibrated to deliver 187 L/ha over an application area of 0.503 m2 at a spray height of 18 to 20 inches (46 to 50 cm) above average plant canopy height. Control plants were sprayed in the same manner with the solvent blank.
The treated plants and control plants were placed in a greenhouse as described above and watered by sub-irrigation to prevent wash-off of the test compounds. […]
Table 1 illustrates weed control for foliar applications of compositions comprising halauxifen-methyl+2,4-D-dimethylammonium (2,4-D-DMA)+paraquat on various broadleaf weeds. […] The compositions disclosed herein can be used in burndown and fallow crop applications or in herbicide tolerant crops. These compositions can be used for broad-spectrum control of broadleaf weeds including, but not limited to, ALS, auxinic, HPPD, PPO, glufosinate and glyphosate resistant broadleaf weeds. The compositions disclosed herein can have utility in AAD1 and AAD12 monocot and dicot crops whereby there is crop tolerance to all 3 modes of action, providing growers with a solution to control susceptible and resistant broadleaf weeds, as well as to delay the development of resistance by the use of 3 modes of action product. The compositions disclosed herein can be used in non-crop and R&P/IVM situations, post directed in perennial crops, and potentially across many crops where there is tolerance to all 3 modes of action.

C[n+]1ccc(-c2cc[n+](C)cc2)cc1 [paraquat, 1-methyl-4-(1-methylpyridin-1-ium-4-yl)pyridin-1-ium]
Chem 2 Actual Mean % Weed Control (Trial 1, 17DAA): 32.50% | Chem 2 Actual Mean % Weed Control (Trial 1, 28DAA): 52.50% | Chem 2 Actual Mean % Weed Control (Trial 1, 43DAA): 60.00% | Chem 2 Actual Mean % Weed Control (Trial 2, 17DAA): 52.50% | Chem 2 Actual Mean % Weed Control (Trial 2, 28DAA): 55.00% | Chem 2 Actual Mean % Weed Control (Trial 2, 43DAA): 65.00%
